The source of these data is patent publication US6706754B2, “Reversed amidines and methods of using for treating, preventing, or inhibiting leishmaniasis” (The United States of America as represented by the …, priority 2000, dated 2004).

For assay [1], the system named is L. donovani axenic amastigote-like parasites. As to the kind of experiment: Axenic amastigote assay (CellTiter 96 tetrazolium dye growth assay). The following applies: 72 hours, 37° C., pH 5.5, concentration that inhibited parasite growth by 50%. The assay is classed as cell-based. The protocol:
The growth susceptibilities of L. donovani axenic amastigote-like parasites to the candidate compounds were measured in a three day assay using the tetrazolium dye-based CellTiter 96 Aqueous Non-Radioactive Cell Proliferation Assay Kit (Promega, Madison, Wis.) according to Werbovetz, K., et al. (1999) Mol. Biochem. Parasitol. 98:53-65, which is herein incorporated by reference. Pentamidine, at a starting concentration of 100 μM, and serial dilutions thereof were used as controls. Specifically, L. donovani axenic amastigotes, as described by Joshi, M. et al. (1993) Mol. Biochem. Parasitol. 58:345-354, which is herein incorporated by reference, were seeded at 10^6 cells/ml in 96-well flat-bottomed plates (Costar, Cambridge, Mass.) and maintained as axenic amastigote-like forms by serial passage at 37° C. in a humid atmosphere comprising 5% CO2 using a slightly modified potassium-based version of the medium described by Joshi, M. et al. (1993) in the presence or absence of a given candidate compound. The medium comprised 15 mM KCl, […] KH2PO4, 10 mM K2HPO4, 0.5 mM MgSO4, and 24 mM NaHCO3 to give a final potassium concentration of […]. The medium was supplemented with 20% fetal bovine serum and was brought to pH 5.5. The final volume in each well was 60 μl. The plates were incubated at 37° C. for 72 hours, then 12 μl of the aqueous CellTiter solution from the kit (Promega, Madison, Wis.) was added to each well according to the instructions of the manufacturer. The plates were returned to the incubator for about 2 to about 3 hours. Then the absorbance of each well was measured at 490 nm using a SpectraMax Plus microplate reader (Molecular Devices, Sunnyvale, Calif.).
The results for each candidate compound may be found in the FIG. 1. The IC50 values (the concentration of the agent that inhibited parasite growth by 50%) for each candidate compound were determined for axenic amastigotes with the aid of the program SoftMax Pro (Molecular Devices, Sunnyvale, Calif.) using the following dose response equation: y=((a−d)/1+(x/c)^b)+d, wherein x=drug concentration; y=absorbance at 490 nm; a=upper asymptote; b=slope; c=IC50; and d=lower asymptote. FIG. 2 is the graphical data obtained for compound 1DWB667 as an example.

Assay [2] has as its system L. donovani L82. As to the kind of experiment: In vivo assay, murine visceral model of leishmaniasis. Also noted: species or system Leishmania donovani. The following applies: Table 4; BALB/c mice; 15 μmol/kg i.v. × 5.

For “2,5-Bis[2-methyl-4-(2-pyridylimino)aminophenyl]furan [DB 702]”, the results for the “Axenic Amastigote IC50 L. donovani” value in assay [1] and in assay [1] (listed as DB702) were 0.174 µg/mL and “about 0.2 μg/ml”, respectively. For the substance “2,5-Bis[2-methyl-4-(5-methyl-2-pyridylimino)aminophenyl]furan [DB 710]”, the “Axenic Amastigote IC50 L. donovani” value in assay [1] was 0.242 µg/mL; in assay [1] (listed as DB710), “about 0.2 μg/ml”. Turning to “2,5-Bis[2-methoxy-4-(2-pyridylimino)aminophenyl]furan [DB 709]”, the “Axenic Amastigote IC50 L. donovani” value in assay [1] is 0.157 µg/mL; in assay [1] (listed as DB709), “about 0.2 μg/ml”. In the case of “2,5-Bis[4-(2-pyridylimino)aminophenyl]furan [1DWB 667]”, the “Axenic Amastigote IC50 L. donovani” value in assay [1] turned out to be 0.550 µg/mL. As for “2,5-Bis[2-chloro-4-(2-pyridylimino)aminophenyl]furan [DB 712]”, the “Axenic Amastigote IC50 L. donovani” value in assay [1] worked out at 0.308 µg/mL. Besides, the “% inhibition ± S.E.M.” value in assay [2] was 15.33 ± 2.7%.
